Patent publication US20260200888A1, “BIO-BASED COMPOUNDS” (SPECIALTY OPERATIONS FRANCE, priority 2022, published 2026)

Experiments:
[1] = Solubility of mono-fungicides in the solvent of Example 1 and prior art solvents (Example 2); details: for Maximum solubility (w/v) in Cyrene: solvent Cyrene; for Maximum solubility (w/v) in Example 1: solvent Example 1; for Maximum solubility (w/v) in Rhodiasolv ADMA10: solvent Rhodiasolv ADMA10; for Maximum solubility (w/v) in Rhodiasolv PolarClean: solvent Rhodiasolv PolarClean
Source text: The concentration of the fungicides (w/v) was increased in 5% intervals and the highest still soluble concentration is stated in the table below.

[2] = Solubility of mono-fungicides in the solvent of Example 6 and prior art solvents (Example 7); details: 24° C.; for Maximum solubility (w/v) in Cyrene: solvent Cyrene; for Maximum solubility (w/v) in Example 6: solvent Example 6; for Maximum solubility (w/v) in Rhodiasolv ADMA10: solvent Rhodiasolv ADMA10
[3] = in Cyrene and NBP
[4] = 24° C., 5% intervals, highest still soluble concentration

SMILES	Maximum solubility (w/v) in Cyrene ([1]; 0° C. after seeding)	Maximum solubility (w/v) in Cyrene ([1]; 24° C.)	Maximum solubility (w/v) in Example 1 ([1]; 0° C. after seeding)	Maximum solubility (w/v) in Example 1 [1, 4]	Maximum solubility (w/v) in Rhodiasolv ADMA10 ([1]; 0° C. after seeding)	Maximum solubility (w/v) in Rhodiasolv ADMA10 ([1]; 24° C.)	Maximum solubility (w/v) in Rhodiasolv PolarClean ([1]; 0° C. after seeding)	Maximum solubility (w/v) in Rhodiasolv PolarClean ([1]; 24° C.)	Maximum solubility (w/v) in Cyrene [2]	Maximum solubility (w/v) in Example 6 [2]	Maximum solubility (w/v) in Rhodiasolv ADMA10 [2]	Viscosity of the resulting NBPT solution ([3]; even at 35% (w/v))	Appearance of the NBPT solution ([3]; even at low concentrations)
CO/C=C(/C(=O)OC)c1ccccc1Oc1cc(Oc2ccccc2C#N)ncn1 [Azoxystrobin]	20% (20%) % (w/v)	20% (20%) % (w/v)	10% (10%) % (w/v)	10% (10%) % (w/v)	(2%) % (w/v)	2% (w/v)	(5%) % (w/v)	15% (w/v)	20% (w/v)	10% (w/v)	2% (w/v)		
CCCCNP(N)(N)=S [NBPT, N-(n-butyl)thiophosphoric triamide]												highly viscous	yellow discoloration
OC(Cc1ccccc1Cl)(Cn1nc[nH]c1=S)C1(Cl)CC1 (stereo not drawn) [Prothioconazole]	10% (10%) % (w/v)	10% (10%) % (w/v)	50% (50%) % (w/v)	50% (50%) % (w/v)	(40%) % (w/v)	40% (w/v)	(50%) % (w/v)	50% (w/v)	10% (w/v)	>30% (w/v)	40% (w/v)		
COC(=O)N(OC)c1ccccc1COc1ccn(-c2ccc(Cl)cc2)n1 [Pyraclostrobin]	45% (45%) % (w/v)	45% (45%) % (w/v)	45% (45%) % (w/v)	45% (45%) % (w/v)	(10) % (w/v)	15% (w/v)	(45%) % (w/v)	45% (w/v)	45% (w/v)	>25% (w/v)	15% (w/v)		
CC(C)N(C)S(=O)(=O)NC(=O)c1cc(-n2c(=O)cc(C(F)(F)F)n(C)c2=O)c(F)cc1Cl [Saflufenacil]	10% (10%) % (w/v)	10% (10%) % (w/v)	20% (20%) % (w/v)	20% (20%) % (w/v)	(10%) % (w/v)	10% (w/v)	(25%) % (w/v)	25% (w/v)	10% (w/v)	>10% (w/v)	10% (w/v)		
CC(C)(C)C(O)(CCc1ccc(Cl)cc1)Cn1cncn1 (stereo not drawn) [Tebuconazole]					(20%) % (w/v)		(30%) % (w/v)						
